Among the data in ChEMBL document CHEMBL1137965, “Crucial role of the peroxyketal function for antimalarial activity in the G-factor series” (Bioorg Med Chem Lett, 2004) are IC50 values, retold here.

The subject of this assay is Plasmodium falciparum. Kind of assay: In vitro inhibition of Plasmodium falciparum in [3H]hypoxanthine incorporation assay. The format is functional, organism-based.
In general, IC50 refers to the midpoint of a concentration-inhibition curve. Read a low IC50 as greater potency. Take `CC1(C)C=C2C(=O)C(C)(C)C(=O)C(C)(C)[C@@]2(O)OO1`: the IC50 came to 36 µM. That is a double-digit micromolar value. In the case of `CC(=O)OC12OOC(C)(C)C=C1C(=O)C(C)(C)C(=O)C2(C)C` (configuration not stated) it was 20.5 µM; in that of `C[C@@H]1CC[C@H]2[C@@H](C)C(=O)O[C@@H]3O[C@@]4(C)CC[C@@H]1[C@]32OO4` [ARTEMISININ], 0.015 µM; in that of `CO[C@]12OO[C@@](C)(CO[Si](c3ccccc3)(c3ccccc3)C(C)(C)C)C=C1C(=O)C(C)(C)C(=O)C2(C)C`, 1.5 µM. In the case of `CO[C@]12OO[C@](C)(CO)C=C1C(=O)C(C)(C)C(=O)C2(C)C` it was 40 µM; in that of `CO[C@]12OO[C@@](C)(CO)C=C1C(=O)C(C)(C)C(=O)C2(C)C`, 1.4 µM. The same measure for `CO[C@]12OO[C@](C)(CO[Si](c3ccccc3)(c3ccccc3)C(C)(C)C)C=C1C(=O)C(C)(C)C(=O)C2(C)C`: 1.4 µM.

In turn, `CC1(C)C(=O)C2=C(OO[C@]3(C)CO[C@H]23)C(C)(C)C1=O` came in with an IC50 above 100 µM. The same measure for `CC1(C)C(=O)C2=C[C@@](C)(CO)OO[C@]2(O)C(C)(C)C1=O`: above 100 µM. In the case of `CC1(C)C=C2C(=O)C(C)(C)C(=O)C(C)(C)C2(F)OO1` (configuration not stated) it was above 100 µM. In the case of `CO[C@]12OOC(C)(C)C=C1C(=O)C(C)(C)C(=O)C2(C)C` it was 0.28 µM; in that of `CC1(C)C(=O)C2=C[C@](C)(CO)OO[C@]2(O)C(C)(C)C1=O`, above 100 µM.
